One test concerns HEK293. The experiment in a line: inhibitors of LMP1-driven NF-kB reporter, dose response, cell-based, HEK293, luciferase, cherry-pick (AID 588343). Particulars: Homo sapiens. The class given is functional.
The nature of test [1]: HepG2 cell cytotoxicity, dose response, cytotoxicity control for Shn3 inhibitor project, CellTiter-Glo, cherry-picked (AID 624134). The class given is functional, cell-based. (In general: Cellular ATP, detected with luciferase, serves as a proxy for viable cell number.)
A short description of test [2]: Luminescence Cell-Based Dose Retest to Confirm Inhibitors of Cancer Stem Cells. [Related pubchem assays (depositor defined):AID2717, AID2721]. It counts as functional. Particulars: Homo sapiens.
Test [3] can be described thus: control 3'UTR Renilla luciferase suppression, dose response, counter-screen for Shn3 inhibitor project, cell-based, Clone20-Shn3RL, cherry-picked (AID 624133). It counts as functional. In general terms: Counterscreens check selectivity or assay interference.
The nature of test [4]: Shn3 3'UTR reporter inhibitors, dose response, cell-based, Clone20 osteoblasts, firefly luciferase, cherry-picked (AID 624132).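 Also: firefly luciferase luminescence from reporter carrying the Shn3 3'UTR in osteoblasts.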 The class given is functional.
A short description of test [5]: growth suppression of PTEN-null colon cells, dose response, cell-based, HCT116 PTEN knockout (AID 1047).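 Also: HCT116 colon tumor cells with PTEN knocked out; cells exposed to compound for 60 hours before readout; potency for loss of cell viability measured by luminescence.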 The class given is functional.
A further test concerns INS1. The experiment in a line: beta cell apoptosis inhibitors, cytokine rescue, dose response, luminescence, retest (AID 449756).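 Also: cell death triggered by IL-1 beta plus TNF-alpha plus IFN-gamma mixture; protective hits raise ATP signal compared with cytokine alone wells.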 The class given is functional, cell-based. As to conditions: Rattus norvegicus.
A further test addresses Paired box protein Pax-8 (Homo sapiens, UniProt Q06710). In words: inhibitors of PAX8-driven TPO luciferase reporter, dose response, RMG-I cells, cherry-pick (AID 687027).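 Also: luciferase reporter driven by Pax8 target thyroperoxidase promoter measured by SteadyGlo luminescence.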 It counts as functional, cell-based. For orientation: Reporter assays use an easily measured gene product as a stand-in for the process of interest.
The nature of test [6]: growth suppression of beta-catenin-knockout colon cells, dose response, cell-based, HCT116, human colon tumor (AID 1045).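 Also: HCT116 colon tumor cells with beta catenin knocked out; cells exposed to compound for 60 hours.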 It counts as functional.
The target in test [7] is T1, RNA-binding protein pos-1 (Caenorhabditis elegans, UniProt G5EF15).
T1 sequence (G5EF15 whole entry): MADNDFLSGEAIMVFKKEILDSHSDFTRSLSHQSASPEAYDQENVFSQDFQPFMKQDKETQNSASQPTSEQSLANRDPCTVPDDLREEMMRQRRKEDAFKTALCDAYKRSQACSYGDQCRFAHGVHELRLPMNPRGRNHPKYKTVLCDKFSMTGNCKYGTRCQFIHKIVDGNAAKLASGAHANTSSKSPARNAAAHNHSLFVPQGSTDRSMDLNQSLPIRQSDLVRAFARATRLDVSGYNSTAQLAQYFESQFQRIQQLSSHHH
In words: inhibitors of POS-1/mex-3 RNA binding, dose response, biochemical, fluorescence polarization (AID 1964).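 Also: purified POS-1 fused to maltose binding protein made in E. coli; potency of compounds blocking POS-1 binding to fluorescent RNA.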

Test [8] concerns the target T2, Zinc finger protein mex-5 (Caenorhabditis elegans, UniProt Q9XUB2).
T2 sequence (Q9XUB2 whole entry): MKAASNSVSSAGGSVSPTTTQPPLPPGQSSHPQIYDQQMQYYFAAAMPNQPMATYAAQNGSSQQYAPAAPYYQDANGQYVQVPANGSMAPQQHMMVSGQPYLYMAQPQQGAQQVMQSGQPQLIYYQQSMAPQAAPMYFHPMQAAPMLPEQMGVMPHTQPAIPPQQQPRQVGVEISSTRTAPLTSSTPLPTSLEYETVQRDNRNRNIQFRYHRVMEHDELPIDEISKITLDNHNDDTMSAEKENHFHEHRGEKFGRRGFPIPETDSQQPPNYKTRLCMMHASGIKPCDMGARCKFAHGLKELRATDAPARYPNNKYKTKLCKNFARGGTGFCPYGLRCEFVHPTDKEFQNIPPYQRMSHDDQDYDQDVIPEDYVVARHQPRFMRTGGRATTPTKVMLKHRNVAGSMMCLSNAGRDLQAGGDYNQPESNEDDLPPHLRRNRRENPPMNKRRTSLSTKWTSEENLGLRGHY
The experiment in a line: MEX-5/TCR-2 RNA interaction inhibitors, dose response, biochemical, C. elegans, fluorescence polarization (AID 1960).

The target in test [9] is T3, Heat shock factor protein 1 (Mus musculus, UniProt P38532).
T3 sequence (P38532 whole entry): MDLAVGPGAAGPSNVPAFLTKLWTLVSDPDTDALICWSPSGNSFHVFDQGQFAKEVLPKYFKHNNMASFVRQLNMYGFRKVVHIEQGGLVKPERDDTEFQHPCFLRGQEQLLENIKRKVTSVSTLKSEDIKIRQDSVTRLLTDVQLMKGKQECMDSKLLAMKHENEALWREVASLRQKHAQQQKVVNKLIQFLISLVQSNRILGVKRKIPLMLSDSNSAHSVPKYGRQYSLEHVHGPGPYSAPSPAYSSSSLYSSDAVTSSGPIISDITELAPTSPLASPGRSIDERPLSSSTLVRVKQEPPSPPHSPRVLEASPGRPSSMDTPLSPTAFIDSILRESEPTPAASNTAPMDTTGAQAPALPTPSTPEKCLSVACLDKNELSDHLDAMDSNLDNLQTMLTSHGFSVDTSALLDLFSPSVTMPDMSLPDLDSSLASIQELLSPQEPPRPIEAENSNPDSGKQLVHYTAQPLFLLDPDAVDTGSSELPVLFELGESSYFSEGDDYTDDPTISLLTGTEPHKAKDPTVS
The experiment in a line: inhibition of MG132-induced HSE-luciferase signal, confirmation, cell-based, NIH3T3, luminescence, dose retest (AID 2382).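 Also: NIH3T3 fibroblasts with HSF1-driven luciferase reporter stressed by proteasome inhibitor MG132; luminescence from HSF1-driven luciferase expression after 8 hours of MG132 stress.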 It counts as functional.

Another test addresses Cytochrome P450 3A4 (Homo sapiens, UniProt P08684). Particulars: Potency.
Test [10] is described as follows: Luminescence Cell-Based Dose Confirmation HTS to Identify Inhibitors of Platelet Dense Granule Release. [Related pubchem assays: 1663 (Primary HTS), 1678 (Summary of Project)]. The class given is functional.
Test [11] concerns the target Luciferin 4-monooxygenase (Photinus pyralis, UniProt P08659). The experiment in a line: firefly luciferase enzyme inhibitors, dose response, biochemical, luminescence (AID 1891).

Calls of active or inactive are those of the source. A value given as a limit tells only on which side of the number the result lay.

This passage reports AC50 and EC50 results from ChEMBL document CHEMBL1201862, “PubChem BioAssay data set” (2004).

Cytochrome P450 3A4, sequence (P08684 whole entry): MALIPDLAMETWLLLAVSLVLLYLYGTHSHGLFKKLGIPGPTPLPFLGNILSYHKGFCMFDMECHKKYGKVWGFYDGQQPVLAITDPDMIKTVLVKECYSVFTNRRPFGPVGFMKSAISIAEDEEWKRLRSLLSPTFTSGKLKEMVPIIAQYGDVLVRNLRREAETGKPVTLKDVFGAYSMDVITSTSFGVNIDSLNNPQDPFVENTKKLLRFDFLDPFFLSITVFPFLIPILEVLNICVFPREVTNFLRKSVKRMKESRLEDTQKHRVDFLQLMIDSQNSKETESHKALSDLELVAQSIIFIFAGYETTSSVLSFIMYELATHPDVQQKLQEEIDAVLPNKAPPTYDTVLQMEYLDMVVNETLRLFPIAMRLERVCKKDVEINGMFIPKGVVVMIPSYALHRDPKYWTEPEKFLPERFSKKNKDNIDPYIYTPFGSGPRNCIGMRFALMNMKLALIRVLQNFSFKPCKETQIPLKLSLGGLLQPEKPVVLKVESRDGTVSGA
Paired box protein Pax-8, sequence (Q06710 whole entry): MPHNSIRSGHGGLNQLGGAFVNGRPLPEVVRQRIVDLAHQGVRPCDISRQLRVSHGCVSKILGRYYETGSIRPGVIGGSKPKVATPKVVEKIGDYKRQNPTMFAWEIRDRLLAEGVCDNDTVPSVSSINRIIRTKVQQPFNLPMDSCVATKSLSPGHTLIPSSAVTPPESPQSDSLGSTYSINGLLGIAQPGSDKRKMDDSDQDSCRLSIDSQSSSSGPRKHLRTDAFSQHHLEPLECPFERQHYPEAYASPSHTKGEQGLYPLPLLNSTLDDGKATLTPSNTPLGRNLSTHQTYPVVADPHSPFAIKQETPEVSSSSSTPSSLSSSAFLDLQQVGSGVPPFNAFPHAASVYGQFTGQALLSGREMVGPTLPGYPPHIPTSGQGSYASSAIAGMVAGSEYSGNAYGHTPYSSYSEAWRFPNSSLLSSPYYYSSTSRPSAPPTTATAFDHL
Luciferin 4-monooxygenase, sequence (P08659 whole entry): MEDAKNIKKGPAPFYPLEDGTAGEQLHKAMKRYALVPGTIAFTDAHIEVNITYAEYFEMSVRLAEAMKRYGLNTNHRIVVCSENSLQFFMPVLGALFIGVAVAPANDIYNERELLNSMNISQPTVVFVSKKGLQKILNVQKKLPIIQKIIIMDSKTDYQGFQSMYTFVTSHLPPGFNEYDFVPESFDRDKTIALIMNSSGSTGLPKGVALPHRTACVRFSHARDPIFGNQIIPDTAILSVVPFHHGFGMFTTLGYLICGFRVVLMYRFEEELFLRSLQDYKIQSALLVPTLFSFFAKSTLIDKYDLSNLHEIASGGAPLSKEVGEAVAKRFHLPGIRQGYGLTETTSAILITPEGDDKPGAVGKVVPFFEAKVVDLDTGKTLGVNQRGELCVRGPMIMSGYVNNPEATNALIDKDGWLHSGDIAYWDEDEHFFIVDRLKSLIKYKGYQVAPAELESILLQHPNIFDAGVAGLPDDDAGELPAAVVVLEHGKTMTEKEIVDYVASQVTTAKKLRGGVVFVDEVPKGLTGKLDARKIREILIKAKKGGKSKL

With `O=C(NCCc1ccccc1)c1ccccc1Cl`, in the test on HEK293, the AC50 was 3.98 µM (active).
With `O=C(Nc1cccc(C(F)(F)F)c1)Nc1ccc(N2CCCC2)c(S(=O)(=O)Nc2ccccc2Cl)c1`, the AC50 in test [1] is 5.53 µM (active); in [2], 0.848 µM (active); in test [3], 5.49 µM (active); in [4] it was 4.42 µM (active); in the test on INS1, 3.57 µM (active); on Paired box protein Pax-8, 6.41 µM (active). Moreover, the EC50 in test [5] was 3.89 µM (active); in test [6], 4.39 µM (active).
`O=C1N=C(Nc2ccccc2Cl)S/C1=C\c1cc([N+](=O)[O-])ccc1O`: the EC50 in test [7] is 10.9 µM (active); in test [8] it was > 300 µM (not active).
With `Cc1ccc(S(=O)(=O)NNc2nc3ccccc3nc2C(F)(F)F)cc1`, the EC50 was 39.8 µM (active) in [7] and 21.5 µM (inconclusive) in test [8].
With `COc1ccc(C(=O)NNC(=O)c2cnccn2)cc1[N+](=O)[O-]`, the EC50 in test [7] was 25.3 µM (active); in test [8], 1.72 µM (active); in test [9] it was > 195 µM (not active).
As to `CCOC(=O)C1Nc2c(F)cc(C)cc2C2C=CCC12` (stereo not drawn), the EC50 in test [7] and in test [8] was > 300 µM (not active) each time.
Take `COC(=O)[C@]1(C)CC[C@@]2(C)CC[C@@]3(C)C4=CCc5c(cc(O)c(O)c5C)[C@]4(C)CC[C@@]3(C)C2C1` (stereo partly drawn): the AC50 on Cytochrome P450 3A4 was 39.8 µM (inconclusive).
As for `CC1(OC(=O)CCc2ccccc2)C(=O)C=C2C=C(c3ccsc3)OC=C2C1=O` (stereo not drawn), the concentration for a half-maximal effect (EC50) is 49.7 µM (active) in test [7] and 28.2 µM (active) in test [8].
On to `COc1cccc(/C=N/NC(=O)CN2CC(c3ccccc3)CC2=O)c1O` (stereo not drawn), for which the AC50 in the test on INS1 is 6.51 µM (active).
Turning to `CCOC(=O)COn1c(=O)c(-c2cc3ccccc3o2)[n+]([O-])c2ccccc21`, the EC50 in test [7] is > 300 µM (not active); in [8], 27.6 µM (active).
Take `CCOc1ccc(OCc2cccc(C(=O)N3CCCCCC3)c2)cc1`: in the test on HEK293, the half-maximal activity concentration (AC50) is 4.36 µM (active).
The same measure, in the same setting: the same measure for `O=C(CSc1nc2ccccc2c(=O)n1CCCN1CCOCC1)Nc1ccc(Br)cc1`: > 350 µM (inactive).
Turning to `N#Cc1ccc(C23CC4(C2)[C@H](CN(Cc2ccc(-c5ccccc5)cc2)[C@@H]4c2ccccc2)C3c2ccccc2)cc1` (stereo partly drawn), the AC50 at Cytochrome P450 3A4 was 15.8 µM (inconclusive).
Turning to `CC1CC2C3CCC4=CC(=O)C=C[C@@]4(C)[C@]3(F)C(O)C[C@]2(C)[C@]1(O)C(=O)COP(=O)(O)O` (stereo partly drawn), at Cytochrome P450 3A4, the AC50 is 39.8 µM (inconclusive).
Consider `CCCCNC(=O)C(c1ccc(OCC(=O)OC)c(C(=O)OC)c1)N(CCC1=CCCCC1)C(=O)CCCCCN1C(=O)NC(c2ccc(-c3ccccc3)cc2)C(C(=O)OCc2ccccc2)=C1C` (stereo not drawn), for which the AC50 at Cytochrome P450 3A4 is 2.51 µM (inconclusive).
On to `COc1cccc(/C=N/Nc2ncnc(N)c2[N+](=O)[O-])c1OC`, for which the EC50 in [7] is 18.4 µM (active); in [8], > 300 µM (inconclusive). Also, the concentration at half-maximal activity (AC50) in the test with HEK293 was 3.91 µM (active).
As to `O=c1oc2ccccc2c(O)c1/C=N/c1ccccn1`, the EC50 in test [10] and in [11] was > 112 µM (not active) throughout. Also, in the test on HEK293, the AC50 was 162 µM (active).
As to `COc1ccc(C2C(C#N)=C(/N=C/N3CCN(C)CC3)OC3=C2C(=O)CC(C)(C)C3)cc1OC` (stereo not drawn), the EC50 in test [7] and in test [8] was > 300 µM (not active) throughout.
Turning to `Cc1ccc2oc(=O)c3c4cc(O)c(O)c(C)c4oc3c2c1`, at Cytochrome P450 3A4, the concentration at half-maximal activity (AC50) was 12.6 µM (inconclusive).

Broadly, the AC50 is the concentration giving half of the maximal activity seen. One may read the EC50 as the concentration at which the effect is half-maximal.
